Laboratory results reported in ChEMBL document CHEMBL4680245, “Design, synthesis and biological evaluation of tetrahydroquinoline-based reversible LSD1 inhibitors” (Eur J Med Chem, 2020).
The source made the active and inactive calls. The calls are words filed in the database; no cut-off is given here.

Tests used:
[1] = test system: A549; assay: cells; settings: Homo sapiens, A549, 72 h
Description: Antiproliferative activity against human A549 cells incubated for 72 hrs by CCK8 assay

[2] = test system: MGC-803; assay: cells; settings: Homo sapiens, MGC-803, 72 h
Description: Antiproliferative activity against human MGC-803 cells incubated for 72 hrs by CCK8 assay

[3] = test system: MCF7; assay: cells; settings: Homo sapiens, MCF7, 72 h
Description: Antiproliferative activity against human MCF7 cells incubated for 72 hrs by CCK8 assay

[4] = test system: PC-3; assay: cells; settings: Homo sapiens, PC-3, 72 h
Description: Antiproliferative activity against human PC-3 cells incubated for 72 hrs by CCK8 assay

[5] = test system: THP-1; assay: cells; settings: Homo sapiens, THP-1, 72 h
Description: Antiproliferative activity against human THP-1 cells incubated for 72 hrs by CCK8 assay

[6] = test system: NB-4; assay: cells; settings: Homo sapiens, NB-4, 72 h
Description: Antiproliferative activity against human NB-4 cells incubated for 72 hrs by CCK8 assay

[7] = molecular target: T1, Lysine-specific histone demethylase 1A (Homo sapiens, UniProt O60341)
Description: Inhibition of human recombinant LSD1 using fluorogenic ADHP based substrate preincubated for 30 mins followed by substrate addition measured after 10 mins by horseradish peroxidase coupled fluorescence assay

[8] = Solubility of compound; assay type: physicochemical
[9] = molecular target: T1, Lysine-specific histone demethylase 1A; assay: Reversible inhibition of recombinant N-terminal FLAG-tagged human LSD1 expressed in baculovirus infected Sf9 insect cells at 10 times IC50 using H3K4me2 as substrate preincubated for 30 mins followed by 100 fold dilution and subsequent substrate addition and measured after 30 mins by jump dilution method; settings: time 60.0 min
[10] = molecular target: T1, Lysine-specific histone demethylase 1A; assay: Non-competitive inhibition of recombinant N-terminal FLAG-tagged human LSD1 expressed in baculovirus infected Sf9 insect cells up to 0.6 uM using varying levels of H3K4me2 as substrate measured after 45 mins by Lineweaver-burk plot analysis; settings: dose microM <=0.6, time 45.0 min
[11] = molecular target: T2, Amine oxidase [flavin-containing] A (Homo sapiens, UniProt P21397); assay: Inhibition of recombinant N-terminal FLAG-tagged human MAOA expressed in baculovirus infected Sf9 insect cells using luminogenic MAO substrate measured after 1 hr by MAO-glo assay
T2 sequence (P21397 whole entry): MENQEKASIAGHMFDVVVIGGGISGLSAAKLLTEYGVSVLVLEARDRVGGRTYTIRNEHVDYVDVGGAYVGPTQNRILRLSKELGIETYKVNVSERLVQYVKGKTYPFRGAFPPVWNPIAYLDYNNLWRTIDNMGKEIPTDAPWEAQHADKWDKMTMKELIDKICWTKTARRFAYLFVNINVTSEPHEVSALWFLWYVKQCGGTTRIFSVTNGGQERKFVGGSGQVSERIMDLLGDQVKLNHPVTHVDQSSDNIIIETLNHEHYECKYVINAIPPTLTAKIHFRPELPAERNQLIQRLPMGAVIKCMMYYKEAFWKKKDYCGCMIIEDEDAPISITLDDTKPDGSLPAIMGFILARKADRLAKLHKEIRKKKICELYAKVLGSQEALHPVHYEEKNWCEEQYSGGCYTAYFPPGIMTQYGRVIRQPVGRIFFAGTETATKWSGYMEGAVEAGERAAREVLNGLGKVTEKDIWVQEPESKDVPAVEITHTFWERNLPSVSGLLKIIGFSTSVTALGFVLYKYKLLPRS

[12] = molecular target: T3, Amine oxidase [flavin-containing] B (Homo sapiens, UniProt P27338); assay: Inhibition of recombinant N-terminal FLAG-tagged human MAOB expressed in baculovirus infected Sf9 insect cells using luminogenic MAO substrate measured after 1 hr by MAO-glo assay
T3 sequence (P27338 whole entry): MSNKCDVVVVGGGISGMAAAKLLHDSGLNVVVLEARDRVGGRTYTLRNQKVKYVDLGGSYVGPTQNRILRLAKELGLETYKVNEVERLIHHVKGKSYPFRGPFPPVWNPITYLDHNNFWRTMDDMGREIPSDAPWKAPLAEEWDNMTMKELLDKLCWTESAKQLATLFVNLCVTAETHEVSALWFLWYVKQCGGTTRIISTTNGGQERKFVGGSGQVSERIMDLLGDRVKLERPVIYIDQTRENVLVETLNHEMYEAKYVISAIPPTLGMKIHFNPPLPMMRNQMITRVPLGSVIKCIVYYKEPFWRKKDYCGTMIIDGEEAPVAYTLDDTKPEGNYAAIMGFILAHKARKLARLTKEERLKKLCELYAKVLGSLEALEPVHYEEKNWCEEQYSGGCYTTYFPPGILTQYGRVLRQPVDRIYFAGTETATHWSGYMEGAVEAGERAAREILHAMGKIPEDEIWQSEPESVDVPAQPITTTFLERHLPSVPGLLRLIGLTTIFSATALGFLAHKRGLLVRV

[13] = molecular target: T1, Lysine-specific histone demethylase 1A; assay: Inhibition of LSD1 in human MGC-803 cells assessed as increase in H3K4me2 accumulation measured after 72 hrs by Western blot analysis; assay type: cell-based
[14] = molecular target: T1, Lysine-specific histone demethylase 1A; assay: Inhibition of LSD1 in human MGC-803 cells assessed as increase in H3K9me2 accumulation up to 4 uM measured after 72 hrs by Western blot analysis; assay type: cell-based; settings: dose microM <=4, time 72.0 hrs
[15] = molecular target: T1, Lysine-specific histone demethylase 1A; assay: Inhibition of LSD1 in human MGC-803 cells assessed as increase in H3K9me1 accumulation up to 4 uM measured after 72 hrs by Western blot analysis; assay type: cell-based; settings: dose microM <=4, time 72.0 hrs
[16] = test system: MGC-803; assay: Induction of apoptosis in human MGC-803 cells after 72 hrs by Annexin V-FITC/propidium iodide staining based flow cytometry; assay type: functional, cell-based
[17] = test system: MGC-803; assay: Cell cycle arrest in human MGC-803 cells assessed as increase in S phase accumulation at 4 uM after 72 hrs by propidium iodide staining based flow cytometry; assay type: functional
[18] = test system: MGC-803; assay: Cell cycle arrest in human MGC-803 cells assessed as decrease in G2/M phase accumulation at 4 uM after 72 hrs by propidium iodide staining based flow cytometry; assay type: functional
[19] = Half life in human liver microsomes preincubated for 10 mins followed by NADPH regenerating system addition and measured up to 60 mins by LC-MS/MS analysis; assay type: ADME, Microsome; settings: time 10-70 min
[20] = Intrinsic clearance in human microsomes preincubated for 10 mins followed by NADPH regenerating system addition and measured up to 60 mins by LC-MS/MS analysis; assay type: ADME, Microsome; settings: time 10-70 min
[21] = Stability in human liver microsomes assessed as parent compound remaining preincubated for 10 mins followed by NADPH regenerating system addition and measured up to 60 mins by LC-MS/MS analysis; assay type: ADME, Microsome; settings: time 10-70 min, read-out: Stabilty
[22] = Stability in human liver microsomes assessed as parent compound remaining measured 60 mins after mins by LC-MS/MS analysis; assay type: ADME, Microsome; settings: liver microsomes, read-out: Stabilty
[23] = test system: MGC-803; assay: Induction of apoptosis in human MGC-803 cells assessed as apoptotic rate at 4 uM after 72 hrs by Annexin V-FITC/propidium iodide staining based flow cytometry relative to control; assay type: functional

`N[C@H]1CC[C@H](N[C@H]2C[C@@H]2c2ccccc2)CC1` showed an IC50 [1] of over 30 µM, an IC50 [2] of over 30 µM and an IC50 [3] of over 30 µM. It also gave an IC50 [4] of over 30 µM, an IC50 [5] of over 30 µM and an IC50 [6] of over 30 µM.
Molecule `Cn1c(C(=O)Nc2cccc3c2N(Cc2ccc(OC[C@@H]4CCNC4)cc2)CCC3)cc2sccc21` has an IC50 [7] of 80.4 nM and an IC50 [1] of 5.23 µM.
For `Cn1c(C(=O)Nc2cccc3c2N(Cc2ccc(OC4CCNCC4)cc2)CCC3)cc2sccc21`, the IC50 [7] was 36.4 nM, the IC50 [1] was 1.25 µM and the IC50 [2] was 2.17 µM. It also gave an IC50 [3] of 5.72 µM, an IC50 [4] of 3.64 µM and an IC50 [5] of 18.1 µM. It also gave an IC50 [6] of 2.78 µM.
`Cn1c(C(=O)Nc2cccc3c2N(Cc2ccc(O[C@H]4CC[C@@H](N)CC4)cc2)CCC3)cc2sccc21` showed an IC50 [7] of 38.3 nM and an IC50 [1] of 7.3 µM.
For `Cn1c(C(=O)Nc2cccc3c2N(Cc2ccc(OC4CC[N+](C)(C)CC4)cc2)CCC3)cc2sccc21`, the solubility [8] was “Insoluble” and the IC50 [7] was 8.25 nM.
`O=C(Nc1cccc2c1N(Cc1ccc(OC3CCNCC3)cc1)CCC2)c1cc2ccccc2n1CCF` showed an IC50 [7] of 0.06 nM, an IC50 [1] of 7.67 µM and an IC50 [2] of 6.26 µM. For the same molecule, the IC50 [3] was 6.96 µM, the IC50 [4] was 2.6 µM and the IC50 [5] was 9.78 µM. It also gave an IC50 [6] of 3.29 µM.
In the case of `CCn1c(C(=O)Nc2cccc3c2N(Cc2ccc(OC4CCNCC4)cc2)CCC3)cc2ccccc21`, the IC50 [7] is reported as 0.15 nM, the IC50 [1] is reported as 8.39 µM and the IC50 [2] is reported as 3.67 µM. The IC50 [3] was 5.59 µM, the IC50 [4] was 5.43 µM and the IC50 [5] was 10.2 µM. It also gave an IC50 [6] of 1.1 µM.
For `Cn1c(C(=O)Nc2cccc3c2N(Cc2ccc(OCC4CCNCC4)cc2)CCC3)cc2sccc21`, the IC50 [7] was 37.7 nM, the IC50 [1] was 2.82 µM and the IC50 [2] was 3.69 µM. It also gave an IC50 [3] of 6.59 µM, an IC50 [4] of 4.07 µM and an IC50 [5] of 20.4 µM. It also gave an IC50 [6] of 2.88 µM.
For `Cn1c(C(=O)Nc2cccc3c2N(Cc2ccc(OC4CCNCC4)cc2)CCC3)cc2ccccc21`, the inhibition [9] was “Active”, the inhibition [10] was “Active” and the IC50 [11] was over 50 µM. For the same molecule, the IC50 [12] was over 50 µM, the inhibition [13] was “Dose-dependent effect” and the inhibition [14] was “Active”. The inhibition [15] was “Active”, the Activity [16] was “Dose-dependent effect” and the Activity [17] was “Active”. For the same molecule, the Activity [18] was “Active”, the half-life [19] was 27.7 min and the microsomal CLint [20] was 50.1 µL/min/mg. For the same molecule, the remaining at 1 h [21] was 20.3%, the remaining at 1 h [22] was 101% and the Activity [23] was 22.79%. It also gave an IC50 [7] of 0.05 nM, an IC50 [1] of 5.97 µM and an IC50 [2] of 1.13 µM. It also gave an IC50 [3] of 5.83 µM, an IC50 [4] of 2.86 µM and an IC50 [5] of 9.68 µM. The IC50 [6] was 9.53 µM.
`Cn1c(C(=O)Nc2cccc3c2N(Cc2ccc(OC4CCNC4)cc2)CCC3)cc2sccc21` (stereo unspecified) showed an IC50 [7] of 46.8 nM and an IC50 [1] of 3.64 µM.
In the case of `Cn1c(C(=O)Nc2cccc3c2N(Cc2ccc(OCC4CC[N+](C)(C)CC4)cc2)CCC3)cc2sccc21`, the solubility [8] is reported as “Insoluble” and the IC50 [7] is reported as 17.3 nM.
`Cn1nc(C(=O)Nc2cccc3c2N(Cc2ccc(OC4CCNCC4)cc2)CCC3)c2ccccc21` gave an IC50 [7] of 0.97 nM.
`Cc1ccncc1C(=O)Nc1cccc2c1N(Cc1ccc(OC3CCNCC3)cc1)CCC2` showed an IC50 [7] of 1.56 nM.
`O=C(Nc1cccc2c1N(Cc1ccc(OC3CCNCC3)cc1)CCC2)c1cc2ccccc2o1` showed an IC50 [7] of 0.53 nM.
In the case of `CN1CCC(COc2ccc(CN3CCCc4cccc(NC(=O)c5cc6sccc6n5C)c43)cc2)CC1`, the IC50 [7] is reported as 53.5 nM.
`Cn1c(C(=O)Nc2cccc3c2N(Cc2ccc(OC4CCNCC4)cc2)CCC3)cc2ccc(Cl)cc21` showed an IC50 [7] of 1.13 nM.
`O=C(Nc1cccc2c1N(Cc1ccc(OC3CCNCC3)cc1)CCC2)c1cc2ccccc2[nH]1` showed an IC50 [7] of 2.81 nM.
Work on `O=C(Nc1cccc2c1N(Cc1ccc(OC3CCNCC3)cc1)CCC2)c1ccc(C(F)(F)F)nc1` yielded an IC50 [7] of over 50 nM.
Work on `Cn1c(C(=O)Nc2cccc3c2N(Cc2ccc(OCc4cccc(C(N)=O)c4)cc2)CCC3)cc2sccc21` yielded an IC50 [7] of over 50000 nM.
Molecule `O=C(Nc1cccc2c1N(Cc1ccc(OC3CCNCC3)cc1)CCC2)c1cc2ccccc2n1C(F)F` has an IC50 [7] of 0.39 nM.
`Cn1c(C(=O)Nc2cccc3c2N(Cc2ccc(OCc4ccc(C#N)cc4)cc2)CCC3)cc2sccc21` gave an IC50 [7] of over 50000 nM.
